Earlier results as cited in PMC8780741, “Integration of In Silico, In Vitro and In Situ Tools for the Preformulation and Characterization of a Novel Cardio-Neuroprotective Compound during the Early Stages of Drug Development” (Pharmaceutics, 2022).

Design: method as in PMID 15832504
Conditions: reference compound for the permeability cut-off; cited from earlier work

## COCCc1ccc(OCC(O)CNC(C)C)cc1 (stereo not shown) [Metoprolol]
  logP: 1.72
